Source: ChEMBL document CHEMBL3044770, “Studies on toxicity of antitubercular drugs namely isoniazid, rifampicin, and pyrazinamide in an in vitro model of HepG2 cell line” (Med Chem Res, 2011)

Experiments:
Type in all cases: cell-based
[1] = Toxicity in Homo sapiens (human) HepG2 cells assessed as cell viability at 10 mM after 24 hr by MTT assay; conditions: read-out: Activity
[2] = Toxicity in pyrazinamide pretreated Homo sapiens (human) HepG2 cells assessed as cell viability at 200 mM after 24 hr by MTT assay; conditions: HepG2 cells pretreated with pyrazinamide, read-out: Activity
[3] = Toxicity in Homo sapiens (human) HepG2 cells assessed as cell viability at 50 mM after 24 hr by MTT assay; conditions: read-out: Activity
[4] = Toxicity in Homo sapiens (human) HepG2 cells assessed as cell viability at 1 mM after 24 hr by MTT assay; conditions: read-out: Activity
[5] = Toxicity in Homo sapiens (human) HepG2 cells assessed as cell viability at 5 mM after 24 hr by MTT assay; conditions: read-out: Activity
HepG2 = test: Toxicity in Homo sapiens (human) HepG2 cells assessed as change in cell morphology at 1 mM after 24 hr by phase contrast microscopic analysis; conditions: hepg2, 24 h, 1000 µM
[6] = Toxicity in isoniazid pretreated Homo sapiens (human) HepG2 cells assessed as cell viability at 200 mM after 24 hr by MTT assay; conditions: HepG2 cells pretreated with isoniazid, read-out: Activity
[7] = Toxicity in Homo sapiens (human) HepG2 cells assessed as cell viability at 100 uM after 24 hr by MTT assay; conditions: read-out: Activity
[8] = Toxicity in Homo sapiens (human) HepG2 cells assessed as cell viability at 25 uM after 24 hr by MTT assay; conditions: read-out: Activity
[9] = Toxicity in Homo sapiens (human) HepG2 cells assessed as cell viability at 50 uM after 24 hr by MTT assay; conditions: read-out: Activity

Row | Compound | viability at 24 h, 10000 µM [1] [%] | viability at 24 h, 200000 µM [2] [%] | viability at 24 h, 50000 µM [3] [%] | viability at 24 h, 1000 µM [4] [%] | viability at 24 h, 5000 µM [5] [%] | Activity (HepG2) | viability at 24 h, 200000 µM [6] [%] | viability at 24 h, 100 µM [7] [%] | viability at 24 h, 25 µM [8] [%] | viability at 24 h, 50 µM [9] [%]
1 | NNC(=O)c1ccncc1 [ISONIAZID] | 129 | 56.1 | 91.3 | 125 | 99.7 | Non-toxic |  |  |  | 
2 | NC(=O)c1cnccn1 [PYRAZINAMIDE] | 104 |  | 102 | 87.7 | 102 | Non-toxic | 60.1 |  |  | 
3 | CO[C@H]1/C=C/O[C@@]2(C)Oc3c(C)c(O)c4c(O)c(c(/C=N/N5CCN(C)CC5)c(O)c4c3C2=O)NC(=O)/C(C)=C\C=C\[C@H](C)[C@H](O)[C@@H](C)[C@@H](O)[C@@H](C)[C@H](OC(C)=O)[C@@H]1C [RIFAMPIN] |  |  |  |  |  |  |  | 192 | 115 | 116
